Results published in patent USRE47689E1, “Compounds for treating spinal muscular atrophy” (PTC Therapeutics, Inc., priority 2011, dated 2019).
Read-outs that look alike come from different tables or passages of the source.

Key:
[1] = system: SMN2 minigene (full length SMN2 minigene mRNA containing SMN2 exon 7); test: SMN2 minigene mRNA splicing RT-qPCR assay in cultured cells; type: cell-based, human; conditions: Homo sapiens, HEK293-H, read-out: EC1.5x for production of full length SMN2 mRNA
Outline: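 Full-length SMN2 minigene mRNA (exon 7 included), minigene-specific and not endogenous SMN, quantified by RT-qPCR multiplexed with GAPDH in stably transfected HEK293H cells after 24 h compound exposure at 37° C. Abundance from efficiency-corrected Ct, normalized to GAPDH and vehicle; EC1.5x reported as star bins.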

[2] = system: Smn protein; test: Smn protein assay in cultured cells (SMN HTRF); type: cell-based, human; conditions: 48 hours; for EC1.5x (concentration giving 1.5-fold Smn protein increase): SMA Type 1 patient fibroblast cells (GM03813), 7-point concentration curve, SMN HTRF, concentration producing 1.5 times Smn protein vs DMSO vehicle control, read-out: EC1.5x for Smn protein expression; for maximum fold (Fold) increase of Smn protein: SMA patient fibroblast cells, 7-point concentration data, fold increase relative to vehicle control (SMN HTRF)
Outline: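 Smn in SMA fibroblast lysates, measured by anti-SMN HTRF after 48 h compound exposure; EC1.5x from fold change over vehicle.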

[3] = HEK293H cells stably transfected with SMN2-A minigene, 24 hours, 7-point concentration curve, 1.5-fold relative to vehicle-treated cells

SMILES	melting point	EC (1.5-fold) [1, 3] [µM]	EC1.5x (concentration giving 1.5-fold Smn protein increase) [2] [nM]	maximum fold (Fold) increase of Smn protein [2]	EC (1.5-fold) ([1]; 24 h) [µM]
Cc1cn2cc(-c3cc4ccc(N5CC(CN(C)C)C5)cc4oc3=O)nc2c(C)n1 [Compound 966, 7-{3-[(dimethylamino)methyl]azetidin-1-yl}-3-(6,8-dimethylimidazo[1,2-a]pyrazin-2-yl)-2H-chromen-2-one]	150 to 152 °C	< 0.1	< 300	**** (fold increase between >1.5 and ≤1.65)	–
Cc1cn2cc(-c3cc4ccc(N5CC[C@@H](CN(C)C)C5)cc4oc3=O)nc2c(C)n1 [Compound 967, 7-{(3S)-3-[(dimethylamino)methyl]pyrrolidin-1-yl}-3-(6,8-dimethylimidazo[1,2-a]pyrazin-2-yl)-2H-chromen-2-one]	198 to 200 °C	< 0.1	< 300	**** (fold increase between >1.5 and ≤1.65)	–
CCN(CC)CCc1ccc2cc(-c3cn4cc(C)nc(C)c4n3)c(=O)oc2c1 [Compound 968, 7-[2-(diethylamino)ethyl]-3-(6,8-dimethylimidazo[1,2-a]pyrazin-2-yl)-2H-chromen-2-one]	190 to 193 °C	< 0.1	< 300	***** (fold increase >1.65)	–
CCN(CC)CCCc1ccc2cc(-c3cn4cc(C)nc(C)c4n3)c(=O)oc2c1 [Compound 969, 7-[3-(diethylamino)propyl]-3-(6,8-dimethylimidazo[1,2-a]pyrazin-2-yl)-2H-chromen-2-one]	165 to 168 °C	< 0.1	< 300	**** (fold increase between >1.5 and ≤1.65)	–
CCN(CC)CCCCc1ccc2cc(-c3cn4cc(C)nc(C)c4n3)c(=O)oc2c1 [Compound 970, 7-[4-(diethylamino)butyl]-3-(6,8-dimethylimidazo[1,2-a]pyrazin-2-yl)-2H-chromen-2-one]	212 to 216 °C	0.3 to 1	300 to 1000	***** (fold increase >1.65)	–
CN(C)Cc1ccc2cc(-c3nc4c(Cl)cccc4s3)c(=O)oc2c1 [Cpd 14, 3-(4-chloro-1,3-benzothiazol-2-yl)-7-[(dimethylamino)methyl]-2H-chromen-2-one]	179 to 182 °C	0.3 to 1	–	*** (fold increase between >1.35 and ≤1.5)	–
O=c1oc2cc(OC3CCNCC3)ccc2cc1-c1nc2ccccc2o1 [Cpd 20, 3-(1,3-benzoxazol-2-yl)-7-(piperidin-4-yloxy)-2H-chromen-2-one]	198 to 201 °C	3 to 30	–	* (maximum fold increase of ≤1.2)	–
O=c1oc2cc(N3CCNCC3)ccc2cc1-c1ccn[nH]1 [Cpd 29, 7-(piperazin-1-yl)-3-(1H-pyrazol-5-yl)-2H-chromen-2-one]	224 to 228 °C	–	–	** (fold increase between >1.2 and ≤1.35)	3 to 30
O=C(Oc1ccc2cc(-c3nc4c(Cl)cccc4s3)c(=O)oc2c1)N1CCNCC1 [Cpd 42, 3-(4-chloro-1,3-benzothiazol-2-yl)-2-oxo-2H-chromen-7-yl piperazine-1-carboxylate]	236 to 239 °C	–	–	* (maximum fold increase of ≤1.2)	1 to 3
O=c1oc2cc(N3CCNCC3)ccc2cc1-c1noc(-c2ccccc2)n1 [Cpd 50, 3-(5-phenyl-1,2,4-oxadiazol-3-yl)-7-(piperazin-1-yl)-2H-chromen-2-one]	214 to 221 °C	1 to 3	–	* (maximum fold increase of ≤1.2)	–
CN1CCN(c2ccc3cc(-c4nc5c(Cl)cccc5o4)c(=O)oc3c2)CC1 [Cpd 68, 3-(4-chloro-1,3-benzoxazol-2-yl)-7-(4-methylpiperazin-1-yl)-2H-chromen-2-one]	229 to 231 °C	1 to 3	–	** (fold increase between >1.2 and ≤1.35)	–
Cc1c[nH]nc1-c1cc2ccc(N3CCNCC3)cc2oc1=O [Cpd 80, 3-(4-methyl-1H-pyrazol-3-yl)-7-(piperazin-1-yl)-2H-chromen-2-one]	175 to 200 °C (dec.)	–	–	** (fold increase between >1.2 and ≤1.35)	3 to 30
O=c1oc2cc(N3CCNCC3)ccc2cc1-c1cn2cccnc2n1 [Cpd 89, 3-(imidazo[1,2-a]pyrimidin-2-yl)-7-(piperazin-1-yl)-2H-chromen-2-one]	286 °C (dec.)	0.1 to 0.3	300 to 1000	**** (fold increase between >1.5 and ≤1.65)	–
Cc1c(-c2cn3cc(Cl)ccc3n2)c(=O)oc2cc(N3CCNCC3)ccc12 [Cpd 112, 3-(6-chloroimidazo[1,2-a]pyridin-2-yl)-4-methyl-7-(piperazin-1-yl)-2H-chromen-2-one]	224 to 227 °C	3 to 30	–	* (maximum fold increase of ≤1.2)	–
CN1CCN(c2ccc3cc(-c4cn5ccsc5n4)c(=O)oc3c2)CC1 [Cpd 117, 3-(imidazo[2,1-b][1,3]thiazol-6-yl)-7-(4-methylpiperazin-1-yl)-2H-chromen-2-one]	256 to 258 °C	0.1 to 0.3	300 to 1000	**** (fold increase between >1.5 and ≤1.65)	–
O=c1oc2cc(N3CCNCC3)ccc2cc1-c1cccnc1C(F)(F)F [Cpd 124, 7-(piperazin-1-yl)-3-[2-(trifluoromethyl)pyridin-3-yl]-2H-chromen-2-one]	197 to 200 °C	0.3 to 1	–	** (fold increase between >1.2 and ≤1.35)	–
CN1CCN(c2ccc3cc(-c4cn5ncccc5n4)c(=O)oc3c2)CC1 [Cpd 128, 3-(imidazo[1,2-b]pyridazin-2-yl)-7-(4-methylpiperazin-1-yl)-2H-chromen-2-one]	284 to 285 °C	1 to 3	3000 to 10000	*** (fold increase between >1.35 and ≤1.5)	–
CC(c1ccc2cc(-c3nc4ccccc4s3)c(=O)oc2c1)N(C)C (stereo not shown) [Cpd 143, 3-(1,3-benzothiazol-2-yl)-7-[1-(dimethylamino)ethyl]-2H-chromen-2-one]	130 to 133 °C	1 to 3	–	*** (fold increase between >1.35 and ≤1.5)	–
CN1CCCN(c2ccc3cc(-c4nc5ccccc5s4)c(=O)oc3c2)CC1 [Cpd 145, 3-(1,3-benzothiazol-2-yl)-7-(4-methyl-1,4-diazepan-1-yl)-2H-chromen-2-one]	217 to 220 °C	0.1 to 0.3	–	** (fold increase between >1.2 and ≤1.35)	–
Cc1ccc2nc(-c3cc4ccc(CN(C)CCO)cc4oc3=O)cn2c1 [Cpd 148, 7-{[(2-hydroxyethyl)(methyl)amino]methyl}-3-(6-methylimidazo[1,2-a]pyridin-2-yl)-2H-chromen-2-one]	166 to 169 °C	3 to 30	1000 to 3000	***** (fold increase >1.65)	–
O=c1oc2cc(N3CCNCC3)cc(F)c2cc1-c1nc2ccccc2s1 [Cpd 160, 3-(1,3-benzothiazol-2-yl)-5-fluoro-7-(piperazin-1-yl)-2H-chromen-2-one]	256 to 260 °C	0.3 to 1	–	* (maximum fold increase of ≤1.2)	–
Cc1ccc2nc(-c3cc4c(F)cc(N5CCNCC5)cc4oc3=O)cn2c1 [Cpd 162, 5-fluoro-3-(6-methylimidazo[1,2-a]pyridin-2-yl)-7-(piperazin-1-yl)-2H-chromen-2-one]	265 to 270 °C	0.1 to 0.3	300 to 1000	*** (fold increase between >1.35 and ≤1.5)	–
O=c1oc2cc(N3CCNCC3)ccc2cc1-c1cc2ccccn2n1 [Cpd 187, 7-(piperazin-1-yl)-3-(pyrazolo[1,5-a]pyridin-2-yl)-2H-chromen-2-one]	236 to 238 °C	0.3 to 1	–	** (fold increase between >1.2 and ≤1.35)	–
COc1cccc(-c2cc3ccc(N4CCNCC4)cc3oc2=O)n1 [Cpd 218, 3-(6-methoxypyridin-2-yl)-7-(piperazin-1-yl)-2H-chromen-2-one]	162 to 165 °C	0.3 to 1	–	** (fold increase between >1.2 and ≤1.35)	–
Cc1cnc2nc(-c3cc4ccc(N5CCNCC5)cc4oc3=O)cn2c1 [Cpd 241, 3-(6-methylimidazo[1,2-a]pyrimidin-2-yl)-7-(piperazin-1-yl)-2H-chromen-2-one]	> 300 °C	0.3 to 1	–	* (maximum fold increase of ≤1.2)	–
Cc1nccc(-c2cc3ccc(N4CCNCC4)cc3oc2=O)n1.Cl [Cpd 274, 3-(2-methylpyrimidin-4-yl)-7-(piperazin-1-yl)-2H-chromen-2-one hydrochloride]	200 °C (dec.)	–	–	** (fold increase between >1.2 and ≤1.35)	1 to 3
